Entries after “also recorded” stand apart in the source; their conditions may differ.
Key:
[1] = test system: human Ad5 recombinant vector; test: Neutralizing antibody to adenovirus in BAL (Hela cell lacZ transduction); assay type: in vivo, C57BL/6 mice; conditions: day 28, versus control mice
Description: BAL samples obtained from animals 28 days after primary exposure to recombinant virus were evaluated for neutralizing antibodies to adenovirus and anti-adenovirus antibody isotypes as follows. The same four groups of C57BL/6 mice, i.e., control, CD4^+ depleted, IL-12 treated and IFN-γ treated, were infected with H5.010BALP. Neutralizing antibody was measured in serially-diluted BAL samples (100 μl) which were mixed with H5.010CBlacZ (1×10^6 pfu in 20 μl), incubated for 1 hour at 37° C., and applied to 80% confluent Hela cells in 96 well plates (2×10^4 cells per well). After 60 minutes of incubation at 37° C., 100 μl of DMEM containing 20% FBS was added to each well. Cells were fixed and stained for β-galactosidase expression the following day.
(§1) The results are shown graphically in FIGS. 1A through 1C, which summarize neutralizing antibody titer, and the relative amounts (OD405) of IgG and IgA present in BAL samples.

[2] = test system: recombinant adenoviruses H5.010CMVlacZ and H5.010CBALP; test: Tail vein adenovirus gene transfer to mouse liver and readministration (Example 4); assay type: in vivo, C57BL/6 mice; conditions: liver, second virus day 28, read day 31
Description: Recombinant virus (H5.010CMVLacZ or H5.010CBALP) was inactivated with ultraviolet light in the presence of 8-methoxypsoralen. Briefly, purified virus was resuspended in 0.33 mg/ml of 8-methoxypsoralen solution and exposed to a 365 nm UV light source on ice at 4 cm from the lamp filter for 30 min. The virus was then passed over a Sephadex G-50 column equilibrated with PBS. […] Suspensions of the viruses (2×10^9 pfu in 100 μl of PBS) were infused into the tail vein of 6 to 8 week old female mice as etailed in the following experiments. Each experiment was performed with a minimum of three mice in which transgene expression was quantified in a section of each of 5 lobes. The minimum analysis was 15 sections per experimental condition.
e. C57BL/6 mice were inoculated i.p. with 0.5 ml aliquots of 1:10 dilution of mouse ascites fluid containing the GK1.5 (anti-CD4 Mab, ATCC TIB207) at days −3, 0 and +3 as described in Example 2. This was equivalent to 100 μg of purified monoclonal antibody per injection. These CD4^+ cell-depleted mice were infected with H5.010CMVlacZ at day 0 and H5.010CBALP at day 28 (“CD4Ab mice”); and
f. […]
Mice from each group were subsequently euthanized and liver tissues evaluated for lacZ expression by X-gal histochemistry (magnification ×100) at day 3 and day 28; and for ALP expression by histochemical staining at day 31 (magnification ×100). […]

[3] = test system: H5.010CBlacZ; test: Adenovirus-specific IgG and IgA in BAL by ELISA; assay type: in vivo, C57BL/6 mice; conditions: day 28, versus control mice
Description: Adenovirus-specific antibody isotype was determined in BAL by using an enzyme-linked immunosorbent assay (ELISA). Briefly, 96-well plates were coated with 100 μl of PBS containing 5×10^9 particles of H5.010CBlacZ for 18 hours at 4° C. The wells were washed 5 times with PBS. After blocking with 200 μl of 2% BSA in PBS, the plates were rinsed once with PBS and incubated with 1:10 diluted BAL samples for 90 minutes at 4° C. Thereafter, the wells were extensively washed and refilled with 100 μl of 1:1000 diluted ALP-conjugated anti-mouse IgG or IgA (Sigma). The plates were incubated, subsequently washed 5 times, and 100 μl of the substrate solution (p-nitrophenyl phosphate, PNPP) was added to each well. Substrate conversion was stopped by the addition of 50 μl of 0.1M EDTA, and reactions were read at 405 nm.
as §1

[4] = test system: virus-infected C57SV cells; test: CTL 51Cr release assay of restimulated splenocytes, IL-12 (Example 6B); assay type: cell-based, C57BL/6 mice; conditions: ALP virus, IL-12 i.p.; 51Cr release on virus-infected target cells
Description: B. Splenocytes harvested from C57BL/6 mice (“B6”) and IL-12-treated C57BL/6 mice (“B6+IL12”) of Example 5 were restimulated in vitro 10 days after administration of H5.010CBALP with H5.010CMVlacZ for 5 days in DMEM supplemented with 5% FBS and […] 2-mercaptoethanol. These cells were tested for specific lysis on mock-infected (“mock”) and H5.010CBALP (“ALP”)-infected C57SV cells in a 6 hour ^51Cr release assay performed subsequently using the following ratios of effector to target cells (c57SV, H-2^b) in 200 μl DMEM with 10% FBS in V-bottom 96-well plates (E:T=50:1, 25:1, 12:1, 6:1, 5:1 and 3:1).
Prior to mixing with the effector cells, target cells (1×10^6) were labeled with 100 μCi of ^51Cr after a 24 hr-infection with H5.010CMVlacZ at an moi of 50 and used at 5×10^3 cells/well. After incubation for 6 hr, aliquots of 100 μl supernatant were removed for counting in a gamma counter.

[5] = test system: recombinant adenoviruses H5.010CBALP and H5.010CMVlacZ; test: Liver-directed adenovirus gene transfer and readministration (Example 3); assay type: in vivo, C57BL/6 mice
Description: Experiments substantially identical to those described in Example 2 above were conducted in which viral vectors were administered into the blood for introduction of the transgene into the liver (rather than intratracheal delivery into the lung).
Female C57BL/6 mice (6-8 weeks old) were injected with suspensions of H5.010CBALP (1×10^9 pfu in 50 μl of PBS) i.p. at day 0 and similarly with H5.010CMVlacZ at day 28. One group of such mice was used as a control. Another group of mice was acutely depleted of CD4^+ cells by i.p. injection of antibody to CD4^+ cells (GK1.5; ATCC No. TIB207, 1:10 dilution of ascites) at the time of the initial gene therapy (days −3, 0, and +3). A third group of mice was injected with IL-12 (2 μg, i.p. injections) at the time of the first administration of virus (days 0 and +1). A fourth group of mice was injected with gamma interferon (2 μg, i.p. injections) at the time of the first administration of virus (days 0 and +1) .
When mice were subsequently euthanized and necropsied at days 3, 28, or 31, liver tissues were prepared for cryosections according to the procedures used above for lung tissue in Example 2.
The cryosection results were substantially similar for liver-directed gene therapy according to this method as for the lung-directed therapy of Example 2 above. The results described below were obtained from the alkaline phosphatase histochemical stains (magnification ×100) or β-galactosidase X-gal stains (magnification ×100).

## interleukin-12 [IL-12]
[1]
  reduction of neutralizing antibody in BAL: 20 fold
[2]
  readministration of virus (gene transfer): insufficient to allow efficient gene transfer upon readministration of virus
[3]
  IgG in BAL: without significantly impacting on formation of IgG
  virus specific IgA in BAL: selectively blocked secretion of antigen specific IgA
[4]
  adenovirus-specific CTL activity: did not increase adenovirus-specific CTL activity; also recorded: unaffected
[5]; liver, days 3 and 28
  transgene expression after first administration of virus (ALP): diminished after about one month
[5]; liver, readministered day 28, read day 31
  gene transfer upon second administration of virus (lacZ): some gene transfer to the liver via the blood was achieved
[5]; liver-directed gene therapy, Example 3
  neutralizing antibodies: the level of neutralizing antibody was reduced
